Data from patent publication US8003400B2, “Measurement of vitamin D” (Roche Diagnostics Operations, Inc., priority 2006, dated 2011).

Biological target: T1, vitamin D binding protein (Homo sapiens, UniProt P02774)
T1 sequence (P02774 17-474): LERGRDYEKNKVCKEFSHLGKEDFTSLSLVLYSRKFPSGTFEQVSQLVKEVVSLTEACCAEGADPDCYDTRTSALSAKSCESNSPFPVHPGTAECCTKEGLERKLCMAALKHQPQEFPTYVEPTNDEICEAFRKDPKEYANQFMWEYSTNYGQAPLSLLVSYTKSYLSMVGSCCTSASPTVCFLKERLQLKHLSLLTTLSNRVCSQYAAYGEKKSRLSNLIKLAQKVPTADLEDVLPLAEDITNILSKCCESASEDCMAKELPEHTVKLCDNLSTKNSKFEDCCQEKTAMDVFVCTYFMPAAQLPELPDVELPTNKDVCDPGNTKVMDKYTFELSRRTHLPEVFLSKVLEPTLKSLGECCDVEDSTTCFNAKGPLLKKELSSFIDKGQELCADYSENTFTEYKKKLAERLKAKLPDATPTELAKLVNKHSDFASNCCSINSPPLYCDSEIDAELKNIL
Experiment: BIACORE assessment of release of vitamin D binding protein from immobilised biotinylated 25-hydroxyvitamin D3
Conditions: BIACORE streptavidin chip saturated with biotinylated 25-hydroxyvitamin D3 and vitamin D binding protein; release monitored for 3 min
Text: For this assessment a streptavidin-coated BIACORE chip is used. This streptavidin-chip is then saturated with a biotinylated 25-hydroxyvitamin D3 and thereafter with vitamin D binding protein. […] The BIACORE system is used to assess whether a reagent considered to be a potential candidate for releasing vitamin D from vitamin D binding protein will be efficient in releasing of vitamin D binding protein to a vitamin D metabolite. A sensor chip coated with streptavidin (Sensor Chip SA, BIACORE AB, BR-1000-32) is used for immobilization of a biotinylated vitamin D metabolite of interest. The assessment is best performed by use of the vitamin D metabolite 25OH vitamin D3. The sensor chip is first incubated with a saturating concentration of biotinylated 25-hydroxyvitamin D3, Then the chip is loaded with a saturating amount of vitamin D binding protein. Then the vitamin D binding protein saturated chip is incubated with a sodium chloride solution one the one hand and a candidate vitamin D releasing reagent in various concentrations on the other hand. The release of vitamin D binding protein is monitored for 3 min. A candidate vitamin D releasing reagent causing the release of at least […] vitamin D binding protein in the above system is appropriate to meet the minimal requirements for a vitamin D releasing reagent used in the detection of a vitamin D metabolite in a sample of serum or plasma 25-hydroxyvitamin D3. Between each run the 25-hydroxyvitamin D3-coated SA-chip is regenerated by washing it with 10 mM Gly/HCl pH 1.7 for 1 min. As non-specific control a reference flow cell coated with biotin on the same chip was used. The data of the reference flow cell are subtracted from those of the biospecific flow cell. Thus specific data free of non-specific effects are obtained.

Molecule	Concentration of releasing reagent required for release off >95% vitamin D binding protein from 25OH-vitamin D3 [% volume/volume]
CCCCn1cc[n+](C)c1.F[B-](F)(F)F [BMI-TFB, 1-Butyl-3-methyl-imidazolium-tetrafluoroborate]	8
CCCC[n+]1cccc(C)c1.N#C[S-] [BMP-SCN, 1-Butyl-3-methyl-pyridinium-thiocyanate]	6
1-Butyl-3-methyl-imidazolium-octylsulfate [BMI-OSO4]	0.5
CCCC[n+]1ccc(C)cc1.F[B-](F)(F)F [BMP-TFB, 1-Butyl-4-methyl-pyridinium-tetrafluoroborate]	6
CCCCCC[n+]1ccccc1.[Cl-] [HP-Cl, 1-Hexylpyridinium-chloride]	6
CCCCCCCC[N+]1(C)CCCC1.[Cl-] [MOP-Cl, 1-Methyl-1-octyl-pyrrolidinium-chloride]	3
CCCCCCCC[n+]1ccccc1.[Cl-] [NOP-Cl, N-Octylpyridinium-chloride]	3
CCCC[n+]1cccc(C)c1.[Cl-] [BMP-Cl, 1-Butyl-3-methyl-pyridinium-chloride]	12
